Experimental data: patent US20060287320A1, “Preparation of thioarabinofuranosyl compounds and use thereof” (Southern Research Institute, priority 1998, published 2006)

Tests used:
[1] = tested on: CEM cells (wild-type); experiment: Inhibition of CEM cell growth, wild-type; conditions: read-out: IC50 (nM) Wild-type; wild-type CEM cells; cell numbers by Coulter Counter; mean and standard deviation from 3 experiments
Protocol: (§7) CEM cells were incubated with various concentrations of each compound and the effect on. cell numbers was determined using a Coulter Counter. The IC50 was determined from a plot of the percent of control growth versus drug concentration. The data presented are the mean and standard deviation from 3 separate experiments.

[2] = Phosphorylation in cell-free CEM extracts, araC-resistant; assay type: biochemical; conditions: for Percent of wild-type: phosphorylation in araC-resistant vs wild-type CEM extract
Protocol: (§1) The number in parentheses is the number of experiments performed. […] At various times after the initiation of the experiment, an aliquot of each reaction volume was removed and placed on DE-81 filters. The filters were washed with 1 mM ammonium formate and ethanol, and the amount of radioactivity on each filter was determined. […] This assay was verified by HPLC.

[3] = tested on: DNA synthesis in CEM cells; experiment: Effect on DNA synthesis ([3H]dThd incorporation) in CEM cells; assay type: cell-based; conditions: 150 nM, average of two experiments
Protocol: (§2) Radiolabeled precursors of DNA [^3H]dThd, RNA ([^3H]Urd), or protein ([^3H]leucine) were added to each treatment 30 minutes after the addition of each compound. Samples were taken 1, 2, 3 and 4 hours after the addition of radiolabeled precursors, and the incorporation of radioactivity into RNA, DNA, or protein were determined as described (Parker et al, Biochem. Pharmacol. 55: 1673-1681, 1998). Each number represents the average of two experiments.

[4] = tested on: RNA synthesis in CEM cells; experiment: Effect on RNA synthesis ([3H]Urd incorporation) in CEM cells; assay type: cell-based; conditions: 150 nM, average of two experiments
Protocol: as §2

[5] = tested on: CEM cells; experiment: Complete metabolism of dCyd, T-dCyd, araC and T-araC in CEM cells; assay type: cell-based; conditions: 100 nM, incubation 1 hour
Protocol: The complete metabolism of each compound was determined: The medium was analyzed for the original compound, its deaminated form using reverse phase HPLC, and H20; the acid-soluble extract was analyzed by SAX HPLC for phosphorylated metabolites; and the incorporation of radioactivity into acid-precipitable material (DNA) was determined.

[6] = tested on: PC-3 Prostate; experiment: In vitro IC50, 72 hour exposure, Natural Red assay; assay type: cell-based; conditions: read-out: IC50 Molar Values
Protocol: (§3) EXAMPLE 3 The following in vitro tests were carried out.
(§4) The above tests were carried out with a 72 hour exposure to the compound using Natural Red assay for all cell lines except SK-MEL 28 which was done with SRB assay.

[7] = tested on: CAK1-1 Renal; experiment: In vitro IC50, 72 hour exposure, Natural Red assay; assay type: cell-based; conditions: read-out: IC50 Molar Values
Protocol: as §3, §4

[8] = tested on: ZR-75-1 Mammary; experiment: In vitro IC50, 72 hour exposure, Natural Red assay; assay type: cell-based; conditions: read-out: IC50 Molar Values
Protocol: as §3, §4

[9] = tested on: DLD-1 Colon; experiment: In vitro IC50, 72 hour exposure, Natural Red assay; assay type: cell-based; conditions: read-out: IC50 Molar Values
Protocol: as §3, §4

[10] = tested on: LOX IMV1 Melanoma; experiment: In vitro IC50, 72 hour exposure, Natural Red assay; assay type: cell-based; conditions: read-out: IC50 Molar Values
Protocol: as §3, §4

[11] = tested on: NC1-H23 Lung; experiment: In vitro IC50, 72 hour exposure, Natural Red assay; assay type: cell-based; conditions: read-out: IC50 Molar Values
Protocol: as §3, §4

[12] = tested on: SNB-7 (CNS); experiment: In vitro IC50, 72 hour exposure, Natural Red assay; assay type: cell-based; conditions: read-out: IC50 Molar Values
Protocol: as §3, §4

[13] = tested on: SK-MEL 28 Melanoma; experiment: In vitro IC50, 72 hour exposure, SRB assay; assay type: cell-based; conditions: read-out: IC50 Molar Values
Protocol: as §3, §4

[14] = Phosphorylation in cell-free CEM extracts, wild-type; assay type: biochemical; conditions: wild-type CEM cell extract; 1 μm substrate
Protocol: as §1

[15] = tested on: SC CAKI-1 Renal Tumor; experiment: Response of SC CAKI-1 Renal Tumor to Treatment; assay type: in vivo; conditions: Q 4H × 3 day 7-15
Protocol: (§5) The following in vivo tests were carried out to illustrate the effectiveness of the compounds of the present invention.

[16] = tested on: CEM cells; experiment: Effect of F-dUrd on metabolism (deamination) in CEM cells; assay type: cell-based; conditions: 100 nM
Protocol: The complete metabolism of each compound was determined as described in the legend to Table 12, and the percent of deaminated metabolites for each compound was determined.

[17] = tested on: SC HCT-116 Colon Tumor; experiment: Response of SC HCT-116 Colon Tumor to Treatment; assay type: in vivo; conditions: Q 4H × 3 day 6-14
Protocol: as §5

[18] = tested on: araC-resistant CEM cells; experiment: Inhibition of CEM cell growth, araC-resistant; conditions: read-out: IC50 (nM) araC-resistant; araC-resistant CEM cells; cell numbers by Coulter Counter; mean and standard deviation from 3 experiments
Protocol: as §7

[19] = tested on: protein synthesis in CEM cells; experiment: Effect on protein synthesis ([3H]leucine incorporation) in CEM cells; assay type: cell-based; conditions: 150 nM, average of two experiments
Protocol: as §2

[20] = tested on: CEM cells; experiment: Retention of araCTP and T-araCTP in CEM cells (FIG. 2); assay type: cell-based; conditions: CEM cells, 1 hour with 5 nM [5-3H]araC
Protocol: […]. Samples were collected at various times after the cells were resuspended in fresh medium, and the amount of radioactivity in the 5′-triphosphate peak was determined using SAX HPLC. In this experiment there was 0.639 pmoles araCTP/10^6 cells and 0.246 pmoles of T-araCTP after the 1 hour incubation with radiolabeled compound.

[21] = tested on: CEM cells; experiment: Initial half-life of triphosphates in CEM cells; assay type: cell-based; conditions: CEM cells after 1 hour with 100 nM radiolabeled nucleoside, then fresh medium; 5′-triphosphate peak
Protocol: Samples were collected at various times after the cells were resuspended in fresh medium, and the amount of radioactivity in the 5'-triphosphate peak was determined using SAX HPLC. The data presented are the mean and standard deviation from 3 separate experiments.

[22] = tested on: CEM cells (wild-type); experiment: Metabolism of dCyd and analogs in wild-type CEM cells; assay type: cell-based; conditions: WT CEM cells; 100 nM; incubation time 0.25 hours
Protocol: (§6) The radioactivity in the 5′-triphosphate peak and the incorporation of radioactivity in the acid-insoluble fraction (DNA) was determined.

[23] = tested on: araC-resistant CEM cells; experiment: Metabolism of dCyd and analogs in araC-resistant CEM cells; assay type: cell-based; conditions: 100 nM, incubation time 0.25 hours
Protocol: as §6

SMILES: Nc1ccn([C@@H]2O[C@H](CO)[C@@H](O)[C@@H]2O)c(=O)n1 [araC, cytosine arabinoside]
- IC50 [1]: 6 ± 3 nM
- Phosphorylation, araC-resistant CEM cells ([2]; araC-resistant CEM cell extract, 1 μm substrate): 1.2 pmoles/mg protein/minute
- Percent of wild-type [2]: 1.3% of wild-type
- DNA synthesis, Percent of control [3]: 8% of control
- RNA synthesis, Percent of control [4]: 96% of control
- DNA (percent of total) [5]: 0.4% of total
- Deaminated Compound (percent of total) [5]: 0% of total
- H20 (percent of total) [5]: 0% of total
- Original Compound (percent of total) [5]: 87% of total
- nucleoside-TP (percent of total) [5]: 13% of total
- IC50 [6]: 5000 nM
- IC50 [7]: 600 nM
- IC50 [8]: 400 nM
- IC50 [9]: 5000 nM
- IC50 [10]: 1000 nM
- IC50 [11]: 300 nM
- IC50 [12]: 200 nM
- IC50 [13]: 2000 nM
- Phosphorylation, Wild-type [14]: 94 pmoles/mg protein/minute
- Days Delay (T − C) ([15]; 13.3 Mg/Kg IP): 11.0 days
- Days to 3 Doubling ([15]; 13.3 Mg/Kg IP): 20.5 days
- Non-Specific Deaths/Total ([15]; 13.3 Mg/Kg IP): 0/6
- Tumor Free Surv/Total ([15]; 13.3 Mg/Kg IP): 0/6
- Tumor Regression Number of Complete ([15]; 13.3 Mg/Kg IP): 0
- Tumor Regression Number of Partial ([15]; 13.3 Mg/Kg IP): 0
- Days Delay (T − C) ([15]; 20 Mg/Kg IP): 6.2 days
- Days to 3 Doubling ([15]; 20 Mg/Kg IP): 15.7 days
- Non-Specific Deaths/Total ([15]; 20 Mg/Kg IP): 5/6
- Toxicity remark under Days Delay (T − C) ([15]; 20 Mg/Kg IP): (Toxic)
- Tumor Free Surv/Total ([15]; 20 Mg/Kg IP): 0/6
- Tumor Regression Number of Complete ([15]; 20 Mg/Kg IP): 0
- Tumor Regression Number of Partial ([15]; 20 Mg/Kg IP): 0
- Days Delay (T − C) ([15]; 30 Mg/Kg IP): 16.2 days
- Days to 3 Doubling ([15]; 30 Mg/Kg IP): 25.7 days
- Non-Specific Deaths/Total ([15]; 30 Mg/Kg IP): 5/6
- Toxicity remark under Days Delay (T − C) ([15]; 30 Mg/Kg IP): (Toxic)
- Tumor Free Surv/Total ([15]; 30 Mg/Kg IP): 0/6
- Tumor Regression Number of Complete ([15]; 30 Mg/Kg IP): 0
- Tumor Regression Number of Partial ([15]; 30 Mg/Kg IP): 0
- Percent Deamination ([16]; F-dUrd 0 μM, incubation time 8 hours): 0%
- Percent Deamination ([16]; F-dUrd 10 μM, incubation time 8 hours): 10%
- Days Delay (T − C) ([17]; 9 Mg/Kg IP): 2.0 days
- Days to 2 Doubling ([17]; 9 Mg/Kg IP): 10.9 days
- Non-Specific Deaths/Total ([17]; 9 Mg/Kg IP): 0/6
- Tumor Free Surv/Total ([17]; 9 Mg/Kg IP): 0/6
- Tumor Regression Number of Complete ([17]; 9 Mg/Kg IP): 0
- Tumor Regression Number of Partial ([17]; 9 Mg/Kg IP): 0
- Days Delay (T − C) ([17]; 13.3 Mg/Kg IP): 3.3 days
- Days to 2 Doubling ([17]; 13.3 Mg/Kg IP): 12.2 days
- Non-Specific Deaths/Total ([17]; 13.3 Mg/Kg IP): 0/6
- Tumor Free Surv/Total ([17]; 13.3 Mg/Kg IP): 0/6
- Tumor Regression Number of Complete ([17]; 13.3 Mg/Kg IP): 0
- Tumor Regression Number of Partial ([17]; 13.3 Mg/Kg IP): 0
- IC50 [18]: 800 ± 400 nM
- protein synthesis, Percent of control [19]: 96% of control

SMILES: Nc1ccn([C@@H]2O[C@H](COP(=O)(O)OP(=O)(O)OP(=O)(O)O)[C@@H](O)[C@@H]2O)c(=O)n1 [araCTP]
- araCTP after the 1 hour incubation [20]: 0.639 pmoles/10^6 cells
- Initial Half-Life, Hours (SD) [21]: 5.31 ± 0.31 h

SMILES: Nc1ccn([C@H]2C[C@H](O)[C@@H](COP(=O)(O)OP(=O)(O)OP(=O)(O)O)O2)c(=O)n1 [dCTP]
- Initial Half-Life, Hours (SD) [21]: 0.94 ± 0.16 h

SMILES: Nc1ccn([C@H]2C[C@H](O)[C@@H](CO)O2)c(=O)n1 [dCyd, 2′-deoxycytidine]
- Percent of wild-type [2]: 1.5% of wild-type
- DNA (percent of total) [5]: 3% of total
- Original Compound (percent of total) [5]: 38% of total
- DNA [22]: 1.19 pmoles/10^6 cells
- Total [22]: 3.46 pmoles/10^6 cells
- Phosphorylation, Wild-type [14]: 240 ± 33 pmoles/mg protein/minute
- DNA [23]: 0.011 pmoles/10^6 cells
- DNA (percent of WT) [23]: 0.89% of WT
- Total [23]: 0.032 pmoles/10^6 cells
- Total (percent of WT) [23]: 0.91% of WT
- Percent Deamination ([16]; F-dUrd 0 μM, incubation time 1 hour): 32%
- Percent Deamination ([16]; F-dUrd 10 μM, incubation time 1 hour): 22%
